Entries after “also recorded” stand apart in the source; their conditions may differ. Positions of bridges follow the written chain, without caps; N, C: chain ends. Non-standard residues stand in square brackets, D forms with d. Residues, ends and D or L forms follow the SMILES beside them. *: point of attachment. Ahx = NCCCCCC(=O)O; Acm = CC(=O)NC*
Experiments:
[1] = molecular target: T1, BNP(1-32) (Homo sapiens, UniProt P16860); test: Immunisation of mice, ELISA of sera; type: in vivo; settings: Balb/c mice immunised with KLH-coupled peptide
T1 construct: BNP(1-32): synthetic peptide (Sigma-Aldrich, USA, #B-5900); purchased Sigma-Aldrich B-5900; host or cells: chemical synthesis
T1 sequence (P16860 103-134 limits assumed): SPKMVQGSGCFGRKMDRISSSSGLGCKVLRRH
Protocol: In order to produce monoclonal antibodies, ten mice (Balb/c strain females, 5 weeks old, ref: SIFE055, Charles Rivers, Mass., USA) were immunised using one of the following peptides:
For the first injection, an emulsion of 100 μg of KLH-coupled peptide (at a concentration of 1 mg/ml) diluted to ½ in Freund's complete adjuvant (Sigma, #F-5881) was prepared, and 200 μL of said emulsion (i.e. 100 μg of peptide) were injected subcutaneously into each mouse. At intervals of 20 days, three 200 μL booster shots of an emulsion of KLH-coupled peptide (i.e. 100 μg of peptide) and Freund's incomplete adjuvant (Sigma, #F-5506) were injected subcutaneously, then peritoneally, into each mouse.
An ELISA test was carried out on a solid support to detect the presence of anti-BNP(1-32) antibodies in a mouse serum sample. […]
The microplate was washed three times with 0.1% PBS-T. Each serum from previously immunised mice was subsequently diluted tenfold with 0.1% PBS-T containing 0.1% milk (semi-skimmed), then deposited on the basis of 100 μL per well and left to incubate for two hours at 37° C. […] The enzymatic reaction was stopped by adding 50 μL of sulphuric acid (H2SO4, 4 N) per well, and the OD at 490 nm was subsequently measured in each well.

[2] = Accelerated liquid stability, ELISA format
Protocol: (§1) The different compounds were tested at different concentrations diluted in 0.1 M succinate buffer, pH 7.6, containing 5% BSA, 2 mM CaCl2, 10% antiproteases cocktail (Sigma reference P2714), 0.1% Proclin, 0.095% NaN3 and 0.1% sodium benzoate.
(§2) The compounds stability was studied in accelerated condition (room temperature) compared to synthetic BNP(1-32) (Sigma-Aldrich, Etats-Unis, #B-5900) and recombinant proBNP(1-108) (HyTest Ref. 8PRO8) in the following way:
(§3) Recombinant proBNP(1-108), synthetic BNP(1-32) and calibrator peptides were diluted in 0.1 M succinate buffer, pH 7.6 described above. Each solution was divided in 10 tubes placed at room temperature (20° C.±5° C.). Then one tube of each solution was frozen at J0, J+7, J+14, J+21. At J+21, the different solutions were thawed and assayed by means of the BioPlex™ 2200 proBNP assay described in Example 14 or of the immunoassays described in Examples 8.2 and 10.2.
(§4) In the BioPlex™ 2200 proBNP assay, the stability of two concentrations of proBNP(1-108), 10 ng/mL and 1 ng/mL, of CaliproBNP1, 2 μg/mL and 0.125 μg/mL and CaliproBNP3, 1 μg/mL and 0.3 μg/mL, were analyzed. In ELISA format, three concentrations of proBNP(1-108) and BNP(1-32), 1.56 ng/mL, 0.78 ng/ml and 0.39 ng/mL, and of CaliproBNP5, […], 31 ng/mL and 15.6 ng/mL, were analysed.

[3] = tested on: 20G7 antibody; test: Calibrator standard range in ELISA with 20G7 in revelation; type: binding; settings: FIGS. 16 and 17
Protocol: (§5) The CaliproBNP1 calibrator was diluted to 1 μg/mL, 0.2 μg/mL, 0.1 μg/mL, and 0.02 μg/mL, the CaliproBNP3 calibrator was diluted to 1.6 μg/mL, 0.8 μg/mL, 0.3 μg/mL, 0.06 μg/mL, the CaliproBNP5 and CaliproBNP6 calibrators were diluted to from 100 ng/ml to 0.01 ng/ml in the same 0.1 M succinate buffer, pH 7.6.

[4] = tested on: 20G7 antibody; test: Calibrator standard range in BioPlex 2200 proBNP assay; type: binding; settings: FIGS. 14 and 15
Protocol: as §5

[5] = Accelerated liquid stability, BioPlex 2200 proBNP assay
Protocol: as §1, §2, §3, §4

[6] = room temperature, up to J0 + 21

Molecule: Ac-TGCFGRKMDRISTSTAIGCKVLCys-CONH2 (Ac-TGCFGRKMDRISTSTAIGCKVLC-NH2; disulfide 3-19; also: KLH-coupled) [SEQ ID NO: 4, immunogen peptide, coupled to KLH]
- immune response / antiserum reactivity towards BNP(1-32) [1]: very reactive; also recorded: much greater

Molecule: CSCC[C@H](NC(=O)[C@H](CCCCN)NC(=O)[C@H](CCCNC(=N)N)NC(=O)CNC(=O)[C@H](Cc1ccccc1)NC(=O)CCCCCNC(=O)CNC(=O)[C@H](CO)NC(=O)CNC(=O)[C@H](CCC(N)=O)NC(=O)[C@@H](NC(=O)[C@H](CCSC)NC(=O)[C@H](CCCCN)NC(=O)[C@@H]1CCCN1C(=O)[C@H](CO)NC(C)=O)C(C)C)C(=O)N[C@@H](CC(=O)O)C(=O)N[C@@H](CCCNC(=N)N)C(N)=O [CaliproBNP5, Ac-SPKMVQGSG-Ahx-FGRKMDR-CONH2] (Ac-SPKMVQGSG[Ahx]FGRKMDR-NH2)
- Liquid stability at room temperature in buffer, ratio “signal at J0 + X/signal at J0” ([2]; J0 + 7, 0.0156 ng/mL): 1.1
- Liquid stability at room temperature in buffer, ratio “signal at J0 + X/signal at J0” ([2]; J0 + 7, 0.031 ng/mL): 1.06
- Liquid stability at room temperature in buffer, ratio “signal at J0 + X/signal at J0” ([2]; J0 + 7, 0.0625 ng/mL): 1.02
- Liquid stability at room temperature in buffer, ratio “signal at J0 + X/signal at J0” ([2]; J0 + 14, 0.0156 ng/mL): 1.01
- Liquid stability at room temperature in buffer, ratio “signal at J0 + X/signal at J0” ([2]; J0 + 14, 0.031 ng/mL): 1.01
- Liquid stability at room temperature in buffer, ratio “signal at J0 + X/signal at J0” ([2]; J0 + 14, 0.0625 ng/mL): 1.02
- Liquid stability at room temperature in buffer, ratio “signal at J0 + X/signal at J0” ([2]; J0 + 21, 0.0156 ng/mL): 1.10
- Liquid stability at room temperature in buffer, ratio “signal at J0 + X/signal at J0” ([2]; J0 + 21, 0.031 ng/mL): 1.06
- Liquid stability at room temperature in buffer, ratio “signal at J0 + X/signal at J0” ([2]; J0 + 21, 0.0625 ng/mL): 1.1
- stability compared with recombinant proBNP(1-108) and BNP(1-32) [2, 6]: higher stability
- signal in the BNP(1-32) and the proBNP(1-108) assay [3]: signal increasing with the compound concentration

Molecule: Ac-YTLRAPRSPKMV-Ahx-FGRKMDR-Ahx-SGLGC*KVLRRH-COOH (Ac-YTLRAPRSPKMV[Ahx]FGRKMDR[Ahx]SGLGC(Acm)KVLRRH-OH; SMILES CSCC[C@H](NC(=O)[C@H](CCCCN)NC(=O)[C@H](CCCNC(=N)N)NC(=O)CNC(=O)[C@H](Cc1ccccc1)NC(=O)CCCCCNC(=O)[C@@H](NC(=O)[C@H](CCSC)NC(=O)[C@H](CCCCN)NC(=O)[C@@H]1CCCN1C(=O)[C@H](CO)NC(=O)[C@H](CCCNC(=N)N)NC(=O)[C@@H]1CCCN1C(=O)[C@H](C)NC(=O)[C@H](CCCNC(=N)N)NC(=O)[C@H](CC(C)C)NC(=O)[C@@H](NC(=O)[C@H](Cc1ccc(O)cc1)NC(C)=O)[C@@H](C)O)C(C)C)C(=O)N[C@@H](CC(=O)O)C(=O)N[C@@H](CCCNC(=N)N)C(=O)NCCCCCC(=O)N[C@@H](CO)C(=O)NCC(=O)N[C@@H](CC(C)C)C(=O)NCC(=O)N[C@@H](CSCNC(C)=O)C(=O)N[C@@H](CCCCN)C(=O)N[C@H](C(=O)N[C@@H](CC(C)C)C(=O)N[C@@H](CCCNC(=N)N)C(=O)N[C@@H](CCCNC(=N)N)C(=O)N[C@@H](Cc1c[nH]cn1)C(=O)O)C(C)C) [CaliproBNP6, triepitopic calibrator]
- signal in the BNP(1-32) and the proBNP(1-108) assay [3]: signal increasing with the compound concentration

Molecule: CSCC[C@H](NC(=O)[C@H](CCCCN)NC(=O)[C@H](CCCNC(=N)N)NC(=O)CNC(=O)[C@H](Cc1ccccc1)NC(=O)CCCCCNC(=O)CNC(=O)[C@H](CCC(N)=O)NC(=O)[C@@H](NC(=O)[C@H](CCSC)NC(=O)[C@H](CCCCN)NC(=O)[C@@H]1CCCN1C(=O)[C@H](CO)NC(=O)[C@H](CCCNC(=N)N)NC(=O)[C@@H]1CCCN1C(=O)[C@H](C)NC(=O)[C@H](CCCNC(=N)N)NC(=O)[C@H](CC(C)C)NC(=O)[C@@H](NC(=O)[C@H](Cc1ccc(O)cc1)NC(C)=O)[C@@H](C)O)C(C)C)C(=O)N[C@@H](CC(=O)O)C(=O)N[C@@H](CCCNC(=N)N)C(N)=O [CaliproBNP3, Ac-YTLRAPRSPKMVQG-Ahx-FGRKMDR-CONH2] (Ac-YTLRAPRSPKMVQG[Ahx]FGRKMDR-NH2)
- signal in the BioPlex 2200 proBNP assay [4]: increasing signal with the compound concentration
- Liquid stability at room temperature in buffer, ratio “signal at J0 + X/signal at J0” ([5]; J0 + 7, 0.3 μg/mL): 0.91
- Liquid stability at room temperature in buffer, ratio “signal at J0 + X/signal at J0” ([5]; J0 + 7, 1 μg/mL): 0.92
- Liquid stability at room temperature in buffer, ratio “signal at J0 + X/signal at J0” ([5]; J0 + 14, 0.3 μg/mL): 0.98
- Liquid stability at room temperature in buffer, ratio “signal at J0 + X/signal at J0” ([5]; J0 + 14, 1 μg/mL): 1.02
- Liquid stability at room temperature in buffer, ratio “signal at J0 + X/signal at J0” ([5]; J0 + 21, 0.3 μg/mL): 1.15
- Liquid stability at room temperature in buffer, ratio “signal at J0 + X/signal at J0” ([5]; J0 + 21, 1 μg/mL): 1.06
- stability compared with recombinant proBNP(1-108) [5, 6]: higher stability

Molecule: CC[C@H](C)[C@H](NC(=O)[C@H](CCCNC(=N)N)NC(=O)[C@H](CC(=O)O)NC(=O)[C@H](CCSC)NC(=O)[C@H](CCCCN)NC(=O)[C@H](CCCNC(=N)N)NC(=O)CNC(=O)[C@H](Cc1ccccc1)NC(=O)[C@H](CO)NC(=O)CCCCCNC(=O)[C@@H](NC(=O)[C@H](CCSC)NC(=O)[C@H](CCCCN)NC(=O)[C@@H]1CCCN1C(=O)[C@H](CO)NC(=O)[C@H](CCCNC(=N)N)NC(=O)[C@@H]1CCCN1C(=O)[C@H](C)NC(=O)[C@H](CCCNC(=N)N)NC(=O)[C@H](CC(C)C)NC(=O)[C@@H](NC(=O)[C@H](Cc1ccc(O)cc1)NC(C)=O)[C@@H](C)O)C(C)C)C(=O)N[C@@H](CO)C(=O)N[C@@H](CO)C(N)=O [CaliproBNP1, Ac-YTLRAPRSPKMV-Ahx-SFGRKMDRISS-CONH2] (Ac-YTLRAPRSPKMV[Ahx]SFGRKMDRISS-NH2)
- signal in the BioPlex 2200 proBNP assay [4]: increasing signal with the compound concentration

Source: patent US11340239B2, “BNP (1-32) epitope and antibodies directed against said epitope” (Bio-Rad Europe GMBH, priority 2007, dated 2022)
